# Test results: US10131652B2, “Pyrimidinyloxy benzene derivatives as herbicides” (E. I. DU PONT DE NEMOURS AND COMPANY, priority 2014, dated 2018)
# Read-outs that look alike come from different tables or passages of the source.
# Key:
# Test in all cases: Test F pre-/postemergence plant response
# Format in all cases: in vivo
# [1] = test system: johnsongrass (Sorghum halepense); settings: Sorghum halepense, pre-emergence, scale 0 to 100, read-out: Plant response rating, Johnsongrass
# Text: (§1) Seeds of plant species selected from corn (Zea mays), soybean (Glycine max), velvetleaf (Abutilon theophrasti), lambsquarters (Chenopodium album), wild poinsettia (Euphorbia heterophylla), palmer pigweed (Amaranthus palmeri), waterhemp (common waterhemp, Amaranthus rudis), surinam grass (Brachiaria decumbens), large (Lg) crabgrass (Digitaria sanguinalis), Brazilian crabgrass (Digitaria horizontalis), fall panicum (Panicum dichotomiflorum), giant foxtail (Setaria faberii), green foxtail (Setaria viridis), goosegrass (Eleusine indica), johnsongrass (Sorghum halepense), ragweed (common ragweed, Ambrosia elatior), barnyardgrass (Echinochloa crus-galli), sandbur (southern sandbur, Cenchrus echinatus), arrowleaf sida (Sida rhombifolia), Italian ryegrass (Lolium multiflorum), dayflower (Virginia (VA) dayflower, Commelina virginica), field bindweed (Convolvulus arvensis), cocklebur (common cocklebur, Xanthium strumarium), momingglory (Ipomoea coccinea), nightshade (eastern black nightshade, Solanum ptycanthum), kochia (Kochia scoparia), yellow nutsedge (Cyperus esculentus), and hairy beggarticks (Bidens pilosa), were planted into a silt loam soil and treated preemergence with test chemicals formulated in a non-phytotoxic solvent mixture which included a surfactant.
# (§2) At the same time, plants from these crop and weed species and also waterhemp_RES1, (ALS & Triazine resistant common waterhemp, Amaranthus rudis), and waterhemp_RES2, (ALS & HPPD resistant common waterhemp, Amaranthus rudis) were treated with postemergence applications of test chemicals formulated in the same manner. Plants ranged in height from 2 to 18 cm for postemergence treatments (1- to 4-leaf stage).
# (§3) Treated plants and controls were maintained in a greenhouse for 14 to 21 days, after which time all species were compared to controls and visually evaluated. Plant response ratings, summarized in Table F, are based on a scale of 0 to 100 where 0 is no effect and 100 is complete control. A dash (-) response means no test result.
# corn (Zea mays) = settings: Zea mays, scale 0 to 100
# Text: as §1, §2, §3
# [2] = test system: waterhemp (common waterhemp, Amaranthus rudis); settings: Amaranthus tuberculatus, scale 0 to 100, read-out: Plant response rating, Waterhemp
# Text: as §1, §2, §3
# [3] = test system: palmer pigweed (Amaranthus palmeri); settings: Amaranthus palmeri, scale 0 to 100, read-out: Plant response rating, Pigweed, Palmer
# Text: as §1, §2, §3
# [4] = test system: fall panicum (Panicum dichotomiflorum); settings: Panicum dichotomiflorum, scale 0 to 100, read-out: Plant response rating, Panicum, Fall
# Text: as §1, §2, §3
# [5] = test system: yellow nutsedge (Cyperus esculentus); settings: Cyperus, pre-emergence, scale 0 to 100, read-out: Plant response rating, Nutsedge, Yellow
# Text: as §1, §2, §3
# [6] = test system: wild poinsettia (Euphorbia heterophylla); settings: Euphorbia heterophylla, scale 0 to 100, read-out: Plant response rating, Poinsettia, Wild
# Text: as §1, §2, §3
# [7] = test system: nightshade (eastern black nightshade, Solanum ptycanthum); settings: Solanum, pre-emergence, scale 0 to 100, read-out: Plant response rating, Nightshade
# Text: as §1, §2, §3
# [8] = test system: ragweed (common ragweed, Ambrosia elatior); settings: Ambrosia artemisiifolia, scale 0 to 100, read-out: Plant response rating, Ragweed
# Text: as §1, §2, §3
# kochia (Kochia scoparia) = settings: Bassia scoparia, scale 0 to 100, read-out: Plant response rating, Kochia; for pest or weed control at 31 g/ha: 31 g ai/ha
# Text: as §1, §2, §3
# [9] = test system: arrowleaf sida (Sida rhombifolia); settings: Sida rhombifolia, scale 0 to 100, read-out: Plant response rating, Arrowleaf Sida
# Text: as §1, §2, §3
# [10] = test system: hairy beggarticks (Bidens pilosa); settings: Bidens pilosa, scale 0 to 100, read-out: Plant response rating, Beggarticks
# Text: as §1, §2, §3
# [11] = test system: green foxtail (Setaria viridis); settings: Setaria viridis, pre-emergence, Preemergence, scale 0 to 100, read-out: Plant response rating, Foxtail, Green
# Text: as §1, §2, §3
# [12] = test system: goosegrass (Eleusine indica); settings: Eleusine indica, pre-emergence, scale 0 to 100, read-out: Plant response rating, Goosegrass
# Text: as §1, §2, §3
# [13] = test system: velvetleaf (Abutilon theophrasti); settings: Abutilon theophrasti, pre-emergence, scale 0 to 100, read-out: Plant response rating, Velvetleaf
# Text: as §1, §2, §3
# [14] = test system: field bindweed (Convolvulus arvensis); settings: Convolvulus arvensis, scale 0 to 100, read-out: Plant response rating, Field Bindweed
# Text: as §1, §2, §3
# [15] = post-emergence, 31 g ai/ha Postemergence
# [16] = post-emergence, 62 g ai/ha Postemergence
# [17] = pre-emergence, 31 g ai/ha Preemergence
# [18] = pre-emergence, 62 g ai/ha Preemergence
smiles,measurement,setting,value
"Fc1cccc(Oc2ncc(Cl)cn2)c1-c1cc(C(F)F)on1 [Compound 55, 5-chloro-2-[2-[5-(difluoromethyl)-3-isoxazolyl]-3-fluorophenoxy]pyrimidine]",pest or weed control at 31 g/ha,[1]; 31 g ai/ha Preemergence,20%
same,pest or weed control at 62 g/ha,[1]; Preemergence,90%
same,"Corn plant response rating (crop injury, 0 = no effect, 100 = complete kill) at 31 g/ha",corn (Zea mays); [15],15%
same,"Corn plant response rating (crop injury, 0 = no effect, 100 = complete kill) at 62 g/ha",corn (Zea mays); [16],20%
same,"Corn plant response rating (crop injury, 0 = no effect, 100 = complete kill) at 31 g/ha",corn (Zea mays); [17],0%
same,"Corn plant response rating (crop injury, 0 = no effect, 100 = complete kill) at 62 g/ha",corn (Zea mays); [18],40%
same,pest or weed control at 31 g/ha,[2]; [15],90%
same,pest or weed control at 62 g/ha,[2]; [16],100%
same,pest or weed control at 31 g/ha,[2]; [17],100%
same,pest or weed control at 62 g/ha,"[2]; pre-emergence, Preemergence",100%
same,pest or weed control at 31 g/ha,[3]; [15],98%
same,pest or weed control at 62 g/ha,[3]; [16],98%
same,pest or weed control at 31 g/ha,[3]; [17],75%
same,pest or weed control at 62 g/ha,"[3]; pre-emergence, Preemergence",100%
same,pest or weed control at 31 g/ha,[4]; [15],40%
same,pest or weed control at 62 g/ha,[4]; [16],30%
same,pest or weed control at 31 g/ha,[4]; [17],90%
same,pest or weed control at 62 g/ha,"[4]; pre-emergence, Preemergence",100%
same,pest or weed control at 31 g/ha,[5]; 31 g ai/ha Preemergence,0%
same,pest or weed control at 62 g/ha,[5]; Preemergence,0%
same,pest or weed control at 31 g/ha,[6]; [15],35%
same,pest or weed control at 62 g/ha,[6]; [16],45%
same,pest or weed control at 31 g/ha,[6]; [17],0%
same,pest or weed control at 62 g/ha,"[6]; pre-emergence, Preemergence",30%
same,pest or weed control at 31 g/ha,[7]; 31 g ai/ha Preemergence,98%
same,pest or weed control at 62 g/ha,[7]; Preemergence,98%
same,pest or weed control at 31 g/ha,[8]; [15],55%
same,pest or weed control at 62 g/ha,[8]; [16],55%
same,pest or weed control at 31 g/ha,[8]; [17],40%
same,pest or weed control at 62 g/ha,"[8]; pre-emergence, Preemergence",50%
same,pest or weed control at 31 g/ha,"kochia (Kochia scoparia); post-emergence, Postemergence",95%
same,pest or weed control at 62 g/ha,"kochia (Kochia scoparia); post-emergence, 62 g ai/ha, Postemergence",98%
same,pest or weed control at 31 g/ha,"kochia (Kochia scoparia); pre-emergence, Preemergence",100%
same,pest or weed control at 62 g/ha,"kochia (Kochia scoparia); pre-emergence, Preemergence",100%
same,pest or weed control at 31 g/ha,[9]; [15],95%
same,pest or weed control at 62 g/ha,[9]; [16],100%
same,pest or weed control at 31 g/ha,[9]; [17],98%
same,pest or weed control at 62 g/ha,[9]; [18],100%
same,pest or weed control at 31 g/ha,[10]; [15],55%
same,pest or weed control at 62 g/ha,[10]; [16],70%
same,pest or weed control at 31 g/ha,[10]; [17],0%
same,pest or weed control at 62 g/ha,[10]; [18],0%
same,pest or weed control at 31 g/ha,[11]; 31 g ai/ha,20%
same,pest or weed control at 62 g/ha,[11],70%
same,pest or weed control at 31 g/ha,[12]; 31 g ai/ha Preemergence,5%
same,pest or weed control at 62 g/ha,[12]; Preemergence,50%
same,pest or weed control at 31 g/ha,[13]; 31 g ai/ha Preemergence,100%
same,pest or weed control at 62 g/ha,[13]; Preemergence,100%
same,pest or weed control at 31 g/ha,[14]; [15],25%
same,pest or weed control at 62 g/ha,[14]; [16],70%
same,pest or weed control at 31 g/ha,[14]; [17],0%
same,pest or weed control at 62 g/ha,[14]; [18],10%
